Key:
MV4-11 = test: Antiproliferative activity against human MV4-11 cells assessed as reduction in cell viability incubated for 72 hrs by cell titer glo assay; type: functional, cell-based; conditions: MV4-11, 72 h
NB-4 = test: Antiproliferative activity against human NB4 cells assessed as reduction in cell viability incubated for 72 hrs by cell titer glo assay; type: functional, cell-based; conditions: NB-4, 72 h
MOLM-13 = test: Antiproliferative activity against human MOLM-13 cells assessed as reduction in cell viability incubated for 72 hrs by cell titer glo assay; type: functional, cell-based; conditions: MOLM-13, 72 h
HL-60 = test: Antiproliferative activity against human HL-60 cells assessed as reduction in cell viability incubated for 72 hrs by cell titer glo assay; type: functional, cell-based; conditions: HL-60, 72 h
OCI-AML-3 = test: Antiproliferative activity against human OCI-AML3 cells assessed as reduction in cell viability incubated for 72 hrs by cell titer glo assay; type: functional, cell-based; conditions: OCI-AML-3, 72 h
OCI-AML2 = test: Antiproliferative activity against human OCI-AML2 cells assessed as reduction in cell viability incubated for 72 hrs by cell titer glo assay; type: functional, cell-based; conditions: OCI-AML2, 72 h
Kasumi 1 = test: Antiproliferative activity against human Kasumi 1 cells assessed as reduction in cell viability incubated for 72 hrs by cell titer glo assay; type: functional, cell-based; conditions: Kasumi 1, 72 h
KG-1 = test: Antiproliferative activity against human KG-1 cells assessed as reduction in cell viability incubated for 72 hrs by cell titer glo assay; type: functional, cell-based; conditions: KG-1, 72 h
KG-1a = test: Antiproliferative activity against human KG-1a cells assessed as reduction in cell viability incubated for 72 hrs by cell titer glo assay; type: functional, cell-based
U-937 = test: Antiproliferative activity against human U937 cells assessed as reduction in cell viability incubated for 72 hrs by cell titer glo assay; type: functional, cell-based; conditions: U-937, 72 h
THLE-2 = test: Cytotoxicity against human THLE-2 cells assessed as cell viability incubated for 72 hrs by cell titer glo assay; type: cell-based; conditions: THLE-2, 72 h

## Cc1ccc(NC(=O)NCc2ccc3c(c2)CN(C2CCC(=O)NC2=O)C3=O)cc1Cl (stereo not drawn)
MV4-11
  IC50: 5 nM
NB-4
  IC50: 2 nM
MOLM-13
  IC50: 8 nM
HL-60
  IC50: 3 nM
OCI-AML-3
  IC50: 73 nM
OCI-AML2
  IC50: 21 nM
Kasumi 1
  IC50: 10 nM
KG-1
  IC50: 7 nM
KG-1a
  IC50: 8 nM
U-937
  IC50: 11 nM
THLE-2
  IC50: 11 nM

## CC(C)(C(=O)NCc1ccc2c(c1)CN(C1CCC(=O)NC1=O)C2=O)c1ccccc1 (stereo not drawn)
KG-1
  IC50: > 10000 nM
THLE-2
  IC50: > 10000 nM

From ChEMBL document CHEMBL4706692, “CC-90009: A Cereblon E3 Ligase Modulating Drug That Promotes Selective Degradation of GSPT1 for the Treatment of Acute Myeloid Leukemia” (J Med Chem, 2021)
